The text below walks through data of PMC5372246, “Co-production of hydrogen and ethanol from glucose in Escherichia coli by activation of pentose-phosphate pathway through deletion of phosphoglucose isomerase (pgi) and overexpression of glucose-6-phosphate dehydrogenase (zwf) and 6-phosphogluconate dehydrogenase (gnd)” (Biotechnology for Biofuels, 2017).

For assay [1], the target named is T1, Zwf (ZE), glucose-6-phosphate dehydrogenase (Escherichia coli, UniProt P0AC53).
T1 construct: full-length, C-terminal His-tag, Ni-NTA purified from E. coli, 55 kDa on SDS-PAGE
Description: inhibition of purified enzyme, NADPH formation at […] nm. Format: biochemical.

For assay [2], the target named is T2, Gnd (GE), 6-phosphogluconate dehydrogenase (Escherichia coli, UniProt P00350).
T2 construct: full-length, C-terminal His-tag, Ni-NTA purified from E. coli, 51 kDa on SDS-PAGE
T2 sequence (P00350 1-468): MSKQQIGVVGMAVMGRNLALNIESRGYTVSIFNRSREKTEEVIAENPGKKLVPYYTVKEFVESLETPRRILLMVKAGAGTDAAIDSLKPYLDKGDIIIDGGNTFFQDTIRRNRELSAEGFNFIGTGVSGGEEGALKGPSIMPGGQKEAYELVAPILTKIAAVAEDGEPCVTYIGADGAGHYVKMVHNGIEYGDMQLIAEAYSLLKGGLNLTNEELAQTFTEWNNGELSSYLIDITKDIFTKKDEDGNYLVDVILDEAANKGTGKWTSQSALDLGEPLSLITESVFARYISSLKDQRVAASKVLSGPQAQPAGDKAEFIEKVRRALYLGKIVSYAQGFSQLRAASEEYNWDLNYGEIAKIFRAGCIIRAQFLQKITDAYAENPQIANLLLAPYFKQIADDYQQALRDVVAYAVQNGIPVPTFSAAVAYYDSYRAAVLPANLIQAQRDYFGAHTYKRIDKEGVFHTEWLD
Described as above. Type of assay: biochemical.

T1 sequence (P0AC53 whole entry): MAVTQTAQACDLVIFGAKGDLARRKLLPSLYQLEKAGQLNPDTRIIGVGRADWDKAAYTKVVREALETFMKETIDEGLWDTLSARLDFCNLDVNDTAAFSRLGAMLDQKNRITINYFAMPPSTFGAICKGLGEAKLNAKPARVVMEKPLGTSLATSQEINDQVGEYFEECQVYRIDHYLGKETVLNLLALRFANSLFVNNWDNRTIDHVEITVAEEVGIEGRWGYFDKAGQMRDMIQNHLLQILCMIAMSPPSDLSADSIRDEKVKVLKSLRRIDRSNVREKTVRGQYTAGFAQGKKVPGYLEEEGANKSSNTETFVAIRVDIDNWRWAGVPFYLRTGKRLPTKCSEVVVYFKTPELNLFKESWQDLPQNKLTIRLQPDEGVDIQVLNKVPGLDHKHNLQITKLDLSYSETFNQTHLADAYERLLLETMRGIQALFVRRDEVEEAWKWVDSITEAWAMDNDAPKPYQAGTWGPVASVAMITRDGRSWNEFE

What is called Ki is the equilibrium dissociation constant of an inhibitor or competing ligand from its target. A low value points to tighter binding. Turning to `NC(=O)C1=CN([C@@H]2O[C@H](COP(=O)(O)OP(=O)(O)OC[C@H]3O[C@@H](n4cnc5c(N)ncnc54)[C@H](OP(=O)(O)O)[C@@H]3O)[C@@H](O)[C@H]2O)C=CC1` [NADPH], the Ki in assay [1] and in assay [2] was around 40 µM throughout.
